Data reported in patent US5583142A, “Analgesic and nootropic drugs” (priority 1992, dated 1996).
Read-outs that look alike come from different tables or passages of the source.

How the values were obtained:
[1] = mouse
Protocol: In FIGS. 7 and 7 bis vertical lines give s.e. mean. Each column represents the mean of 6-10 mice. SM-21 maleate, PG-9 maleate, SM-32 oxalate, cocaine HCl, amphetamine sulphate and caffeine were administered 15 min before test.

[2] = mouse passive avoidance test, amnesia induced by hypoxia; type: in vivo; settings: 30 to 300 mg/kg i.p.
Protocol: The nootropic action (learning facilitation, memory enhancement, intelligence booster, cognition activation) was assessed both in mouse and in rat by the two following methods: the mouse was tested by the passive avoidance method, using the so-called light-dark box. A painful stimulus, i.e. an electrically-evoked shock through the animal paws, and an unpleasant but not painful stimulus (mice fall into a water-ice mixture ensuing a sudden dark box floor opening) were used. A non-painful stimulus was required because the data referred to learning had not to be untruthfully negative due to the analgesic action of the claimed molecules. The painful stimulus (electric shock), like the unpleasant but not painful one, was effective at the interval of doses at which the claimed molecules were clearly nootropic but not yet analgesic. Independently of the type of stimulus used, the procedure consists of two experimental phases denominated, respectively, Training and Retention, the latter being carried out 24 hrs after the former. […] To this purpose the time taken by mice to enter the dark box is measured again: the longer the time recorded in the second day when compared with the first (Retention minus Training), the higher the mice learning and memorizing capabilities. […]

[3] = test system: presynaptic muscarinic autoreceptor; settings: cited from earlier work

Compound	motor activity and curiosity (exploration activity) ([1]; FIG. 7 and FIG. 7 bis)	selectivity and efficacy as antagonists of the presynaptic muscarinic autoreceptor [3]	also measured
CN1CCC[C@H]1c1cccnc1 [nicotine]	remarkably increase the motor activity	–	–
COC(=O)[C@H]1[C@@H](OC(=O)c2ccccc2)C[C@@H]2CC[C@H]1N2C [cocaine]	–	–	motor activity and curiosity (exploration activity) ([1]; in vivo): remarkably increase the motor activity
Cn1c(=O)c2c(ncn2C)n(C)c1=O [caffeine]	remarkably increase the motor activity	–	–
NC(=O)CN1CCCC1=O [Piracetam]	–	–	effect on amnesia induced by hypoxia [2]: inactive
CCCCN1CCCCC1C(=O)Nc1c(C)cccc1C (centres unmarked) [bupivacaine]	–	little selective as well as little efficacious	–
CCN(CC)CCNC(=O)c1ccc(N)cc1 [procainamide]	–	little selective as well as little efficacious	–
CC(N)Cc1ccccc1 (centres unmarked) [amphetamine]	remarkably increase the motor activity	–	–
Cc1cccc(C)c1OCC(C)N (centres unmarked) [mexyletine]	–	little selective as well as little efficacious	–
